Earlier results as cited in patent US3931141A, “Novel heptapeptides having gastrin activity” (Hoechst Aktiengesellschaft, priority 1972, dated 1976).

Tested on: stomach
Conditions: The Lancet 1966, page 933

In the case of “Boc--β--Ala--Trp--Met--Asp--Phe--NH2 [formula IV]”, the “stimulating action (acid production and quantity secreted) compared with other synthetic peptides” value is listed as “strongest stimulating action”.
